Earlier results on one compound are cited in patent US20210315865A1 (Biohaven Therapeutics Ltd., priority 2018, published 2021).

For the data set the following is noted: taken with meals.

Each structure is given as a SMILES string.

Consider `Nc1nc2ccc(OC(F)(F)F)cc2s1` [riluzole, 6-(trifluoromethoxy)benzothiazol-2-amine], for which the “food effect on exposure” value is given as “reduced exposure when taken with meals”.
